Results taken from ChEMBL document CHEMBL5108031, “Novel N-(4-thiocyanatophenyl)-1H-1,2,3-triazole-4-carboxamides exhibit selective cytotoxic activity at nanomolar doses towards human leukemic T-cells” (Eur J Med Chem, 2022).
The source made the active and inactive calls. The rule behind the calls is not given here.

How the values were obtained:
[1] = molecular target: Heat shock protein HSP 90-alpha (Homo sapiens, UniProt P07900); assay: Inhibition of Hsp90alpha (unknown origin)
[2] = test system: HCT-116; assay: Antiproliferative activity against human HCT-116 cells incubated for 72 hrs and measured by MTT assay; format: functional
[3] = test system: HCT-116; assay: Antiproliferative activity against p53-deficient human HCT-116 cells incubated for 72 hrs and measured by MTT assay; format: functional
[4] = test system: WM793; assay: Antiproliferative activity against human WM793 cells incubated for 72 hrs and measured by MTT assay; format: functional
[5] = test system: HeLa; assay: Antiproliferative activity against human HeLa cells incubated for 72 hrs and measured by MTT assay; format: functional
[6] = test system: KB 3-1; assay: Antiproliferative activity against human KB 3-1 cells incubated for 72 hrs and measured by MTT assay; format: functional
[7] = test system: A549; assay: Antiproliferative activity against human A549 cells incubated for 72 hrs and measured by MTT assay; format: functional
[8] = test system: MCF7; assay: Antiproliferative activity against human MCF7 cells incubated for 72 hrs and measured by MTT assay; format: functional
[9] = test system: MDA-MB-231; assay: Antiproliferative activity against human MDA-MB-231 cells incubated for 72 hrs and measured by MTT assay; format: functional
[10] = test system: SK-OV-3; assay: Antiproliferative activity against human SK-OV-3 cells incubated for 72 hrs and measured by MTT assay; format: functional
[11] = test system: THP-1; assay: Antiproliferative activity against human THP-1 cells incubated for 72 hrs and measured by MTT assay; format: functional
[12] = test system: K562; assay: Antiproliferative activity against human K562 cells incubated for 72 hrs and measured by MTT assay; format: functional
[13] = test system: Jurkat; assay: Antiproliferative activity against human Jurkat cells incubated for 72 hrs and measured by MTT assay; format: functional
[14] = test system: HaCaT; assay: Antiproliferative activity against human HaCaT cells incubated for 72 hrs and measured by MTT assay; format: functional
[15] = test system: HEK293; assay: Antiproliferative activity against human HEK293 cells incubated for 72 hrs and measured by MTT assay; format: functional
[16] = test system: BALB/3T3; assay: Antiproliferative activity against mouse BALB/3T3 cells incubated for 72 hrs and measured by MTT assay; format: functional
[17] = test system: CAKI-1; assay: Antiproliferative activity against human CAKI-1 cells assessed as relative cell growth at 10 uM incubated for 48 hrs and measured by SRB assay; format: functional; conditions: read-out: Activity
[18] = test system: LOX IMVI; assay: Antiproliferative activity against human LOX IMVI cells assessed as relative cell growth at 10 uM incubated for 48 hrs and measured by SRB assay; format: functional; conditions: read-out: Activity
[19] = test system: SR; assay: Antiproliferative activity against human SR cells assessed as relative cell growth at 10 uM incubated for 48 hrs and measured by SRB assay; format: functional; conditions: read-out: Activity
[20] = test system: MOLT-4; assay: Antiproliferative activity against human MOLT-4 cells assessed as relative cell growth at 10 uM incubated for 48 hrs and measured by SRB assay; format: functional; conditions: read-out: Activity
[21] = test system: UO-31; assay: Antiproliferative activity against human UO-31 cells assessed as relative cell growth at 10 uM incubated for 48 hrs and measured by SRB assay; format: functional; conditions: read-out: Activity
[22] = test system: CCRF-CEM; assay: Antiproliferative activity against human CCRF-CEM cells assessed as relative cell growth at 10 uM incubated for 48 hrs and measured by SRB assay; format: functional; conditions: read-out: Activity
[23] = test system: SF-539; assay: Antiproliferative activity against human SF-539 cells assessed as relative cell growth at 10 uM incubated for 48 hrs and measured by SRB assay; format: functional; conditions: read-out: Activity
[24] = test system: SF-295; assay: Antiproliferative activity against human SF-295 cells assessed as relative cell growth at 10 uM incubated for 48 hrs and measured by SRB assay; format: functional; conditions: read-out: Activity
[25] = test system: HL-60(TB); assay: Antiproliferative activity against human HL-60(TB) cells assessed as relative cell growth at 10 uM incubated for 48 hrs and measured by SRB assay; format: functional; conditions: read-out: Activity
[26] = test system: K562; assay: Antiproliferative activity against human K562 cells assessed as relative cell growth at 10 uM incubated for 48 hrs and measured by SRB assay; format: functional; conditions: read-out: Activity
[27] = test system: NCI-H460; assay: Antiproliferative activity against human NCI-H460 cells assessed as relative cell growth at 10 uM incubated for 48 hrs and measured by SRB assay; format: functional; conditions: read-out: Activity
[28] = test system: MDA-MB-468; assay: Antiproliferative activity against human MDA-MB-468 cells assessed as relative cell growth at 10 uM incubated for 48 hrs and measured by SRB assay; format: functional; conditions: read-out: Activity
[29] = test system: HCC 2998; assay: Antiproliferative activity against human HCC 2998 cells assessed as relative cell growth at 10 uM incubated for 48 hrs and measured by SRB assay; format: functional; conditions: read-out: Activity
[30] = test system: COLO 205; assay: Antiproliferative activity against human COLO 205 cells assessed as relative cell growth at 10 uM incubated for 48 hrs and measured by SRB assay; format: functional; conditions: read-out: Activity
[31] = test system: A498; assay: Antiproliferative activity against human A498 cells assessed as relative cell growth at 10 uM incubated for 48 hrs and measured by SRB assay; format: functional; conditions: read-out: Activity
[32] = test system: Malme-3M; assay: Antiproliferative activity against human Malme-3M cells assessed as relative cell growth at 10 uM incubated for 48 hrs and measured by SRB assay; format: functional; conditions: read-out: Activity
[33] = test system: LOX IMVI; assay: Antiproliferative activity against human LOX IMVI cells incubated for 48 hrs and measured by SRB assay; format: functional
[34] = test system: HOP-92; assay: Antiproliferative activity against human HOP-92 cells incubated for 48 hrs and measured by SRB assay; format: functional
[35] = test system: NCI-H522; assay: Antiproliferative activity against human NCI-H522 cells incubated for 48 hrs and measured by SRB assay; format: functional
[36] = test system: SR; assay: Antiproliferative activity against human SR cells incubated for 48 hrs and measured by SRB assay; format: functional
[37] = test system: HL-60(TB); assay: Antiproliferative activity against human HL-60(TB) cells incubated for 48 hrs and measured by SRB assay; format: functional
[38] = test system: SF-295; assay: Antiproliferative activity against human SF-295 cells incubated for 48 hrs and measured by SRB assay; format: functional
[39] = test system: RXF 393; assay: Antiproliferative activity against human RXF 393 cells incubated for 48 hrs and measured by SRB assay; format: functional
[40] = test system: TK-10; assay: Antiproliferative activity against human TK-10 cells incubated for 48 hrs and measured by SRB assay; format: functional
[41] = test system: UO-31; assay: Antiproliferative activity against human UO-31 cells incubated for 48 hrs and measured by SRB assay; format: functional
[42] = test system: NCI-H460; assay: Antiproliferative activity against human NCI-H460 cells incubated for 48 hrs and measured by SRB assay; format: functional, cell-based; conditions: NCI-H460, 48 h
[43] = test system: Jurkat; assay: Induction of apoptosis in human Jurkat cells assessed as fragmented DNA and nuclei at 0.5 uM measured after 24 hrs by Hoechst 33342/propidium iodide staining based fluorescence microscopic analysis; format: functional, cell-based
[44] = test system: Jurkat; assay: Induction of apoptosis in human Jurkat cells assessed as condensed chromatin at 0.5 uM measured after 24 hrs by Hoechst 33342/propidium iodide staining based fluorescence microscopic analysis; format: functional, cell-based
[45] = test system: Jurkat; assay: Induction of apoptosis in human Jurkat cells assessed as cellular membrane blebbing at 0.5 uM measured after 24 hrs by Hoechst 33342/propidium iodide staining based fluorescence microscopic analysis; format: functional, cell-based
[46] = test system: Jurkat; assay: Induction of apoptosis in human Jurkat cells assessed as appearance of apoptotic bodies at 0.5 uM measured after 24 hrs by Hoechst 33342/propidium iodide staining based fluorescence microscopic analysis; format: functional, cell-based
[47] = test system: Jurkat; assay: Induction of apoptosis in human Jurkat cells assessed as cell debris at 0.5 uM measured after 24 hrs by Hoechst 33342/propidium iodide staining based fluorescence microscopic analysis; format: functional
[48] = test system: Jurkat; assay: Induction of apoptosis in human Jurkat cells assessed as decrease in mitochondrial membrane potential at 0.5 uM measured after 24 hrs by Rhodamine 123 fluorescence based assay; format: functional, cell-based
[49] = test system: Jurkat; assay: Induction of DNA damage in human Jurkat cells assessed as tail DNA at 0.5 uM measured after 24 hrs by comet assay; format: functional
[50] = test system: Jurkat; assay: Induction of DNA damage in human Jurkat cells assessed as olive tail moment at 0.5 uM measured after 24 hrs by comet assay; format: functional
[51] = test system: Jurkat; assay: Induction of DNA damage in human Jurkat cells assessed as DNA fragmentation at 0.5 uM measured by Diphenylamine assay; format: functional
[52] = test system: DNA; assay: Binding affinity to DNA (unknown origin) assessed as DNA intercalation at 1 to 100 uM by measuring amount of methyl green dye replaced from DNA-methyl green complex; format: nucleic-acid assay; conditions: Homo sapiens; dose 1-100 µM
[53] = read-out: LC50 (the source's name)

`Cc1c(C(=O)Nc2ccc(SC#N)cc2)nnn1-c1ccc(C(C)C)cc1` was tested, and the IC50 [1] was 0.023 µM, the GI50 [2] was > 100 µM and the GI50 [3] was 8.4 µM. For the same compound, the GI50 [4] was > 100 µM, the GI50 [5] was > 100 µM and the GI50 [6] was 7.4 µM. The GI50 [7] was > 100 µM, the GI50 [8] was > 100 µM and the GI50 [9] was > 100 µM. The GI50 [10] was 10 µM, the GI50 [11] was > 100 µM and the GI50 [12] was 5.4 µM. The GI50 [13] was 0.69 µM, the GI50 [14] was > 100 µM and the GI50 [15] was > 100 µM. For the same compound, the GI50 [16] was > 100 µM, the growth at 10 µM [17] was -53.2% and the growth at 10 µM [18] was -53.1%. The growth at 10 µM [19] was -19.9%, the growth at 10 µM [20] was -17.6% and the growth at 10 µM [21] was -17.1%. For the same compound, the growth at 10 µM [22] was -13.3%, the growth at 10 µM [23] was 2.96% and the growth at 10 µM [24] was 4.89%. For the same compound, the growth at 10 µM [25] was 8.6%, the growth at 10 µM [26] was 10.3% and the growth at 10 µM [27] was 13.7%. The growth at 10 µM [28] was 80.1%, the growth at 10 µM [29] was 82.6% and the growth at 10 µM [30] was 89.4%. For the same compound, the growth at 10 µM [31] was 93.6%, the growth at 10 µM [32] was 95.1% and the GI50 [33] was 0.15 µM. For the same compound, the TGI [33] was 1.12 µM, the CC50 [33, 53] was 4.48 µM and the GI50 [34] was 2.85 µM. The TGI [34] was 10.2 µM, the CC50 [34, 53] was 62 µM and the GI50 [35] was 1.97 µM. For the same compound, the TGI [35] was 5.81 µM, the CC50 [35, 53] was > 100 µM and the GI50 [36] was 1.77 µM. The TGI [36] was 5.51 µM, the CC50 [36, 53] was > 100 µM and the GI50 [37] was 2.8 µM. For the same compound, the TGI [37] was 11.5 µM, the CC50 [37, 53] was > 100 µM and the GI50 [38] was 2.71 µM. The TGI [38] was 9.79 µM, the CC50 [38, 53] was > 100 µM and the GI50 [39] was 4.27 µM. It also gave a TGI [39] of 20.4 µM, a CC50 [39, 53] of 69.5 µM and a GI50 [40] of 3.21 µM. The TGI [40] was 9.94 µM, the CC50 [40, 53] was > 100 µM and the GI50 [41] was 2.88 µM. For the same compound, the TGI [41] was 15.5 µM, the CC50 [41, 53] was > 100 µM and the IC50 [42] was 0.028 µM. For the same compound, the Activity [43] was “Active”, the Activity [44] was “Active” and the Activity [45] was “Active”. The Activity [46] was “Active”, the Activity [47] was “Active” and the Activity [48] was “Active”. For the same compound, the Activity [49] was 8.5%, the Activity [50] was 1.3 and the Activity [51] was 26.7%. It also gave an Activity [52] of 2.4%.
